Results on one compound are retold here after patent US9044142B2, “Surgical optical systems for detecting brain tumors” (Carl Zeiss Meditec AG, priority 2010, dated 2015).

Data set [1] concerns GL261-luc glioma cells. Briefly: Intraoperative NIR fluorescence macroscopy of ICG in GL261-luc glioma mouse model. The class given is in vivo. The text has this:
(§1) The GL261 cell line was obtained from the Division of Cancer Treatment and Diagnosis (DCTD) of the National Cancer Institute (NCl), Frederick, Md. […] The morphological, biochemical and growth characteristics of the GL261 mouse brain tumor model have been described elsewhere (see, e.g., M. Candolfi et al., J Neurooncol 85, 133 (November, 2007) and T. Szatmari et al., Cancer Sci 97, 546 (June, 2006)). To facilitate a quantitative measurement of the tumor growth rate, GL261 cells were made bioluminescent using the Lentiphos™ HT System (Clontech Laboratories, Inc., Mountain View, Calif.) with the Lenti-X™ HT Packaging Mix (Clontech Laboratories, Inc.) and the FUW-GL plasmid (a generous gift from the laboratory of J. B. Rubin, MD, PhD). The resulting GL261-luc cells were grown in Dulbecco's modified eagle's medium (DMEM, Invitrogen, Carlsbad, Calif.) supplemented with 10% tetracycline-free fetal calf serum (Clontech Laboratories, Inc) at 37° C. with 5% CO2. Cultured cells were harvested by trypsinization, washed once in phosphate-buffered saline (Invitrogen, Carlsbad, Calif.), and resuspended in DMEM without serum at a concentration of 1×10^7 cells/mL.
Animals were anesthetized by intraperitoneal injection of a mixture of 10 mg/kg xylazine and 80 mg/kg ketamine (Wyeth, Madison, N.J.). A 10-mm incision was made starting between the animal's eyes, exposing the bregma. […]
This study was conducted in two main phases. The purpose of the first phase was to validate the use of ICG fluorescence in both intraoperative NIR macroscopic and miniaturized confocal endomicroscopic techniques for the identification of brain tumors in the mouse model. […] Several intraoperative fluorescence macroscopic video loops, confocal images, and histological specimens were collected and analyzed from each mouse. […] Two cohorts of animals were used in the second phase: (1) six mice were used for intraoperative fluorescence macroscopy and (2) six mice were used for intraoperative confocal endomicroscopy. […]

Data set [2] deals with GL261-luc glioma cells. Briefly: Intraoperative confocal endomicroscopy of ICG distribution in GL261-luc glioma mouse model. The format is in vivo. The conditions noted are these: 0.4 mg/kg intravenously, mice. The procedure:
Thirty mice implanted with glioblastoma cells underwent craniectomies for exposure of tumors 14 days implantation. Tumors were clearly visible macroscopically and extended from cortical surface to deep basal brain structures. ICG was then administered using 0.4 mg/kg, equivalent to a standard single dose for humans (see, e.g., I. Roberts et al., Lancet 342, (1993)). […] Other regions presented a complex mixture of these patterns, with mostly normal-appearing brain punctuated by large pleomorphic cells consistent with an infiltrative margin or satellite tumor cell clusters surrounded by brain tissue. Importantly, patterns consistent with tumor morphology were also seen in brain tissue neighboring the tumor that appeared macroscopically normal as viewed via the surgical microscope. Critically, individual tumor cells within brain tissue could be identified within 475×475 μm field of view and a definitive tumor border delimited (FIGS. 2A-2D).
as §1
Animals were anesthetized by intraperitoneal injection of a mixture of 10 mg/kg xylazine and 80 mg/kg ketamine (Wyeth, Madison, N.J.). A 10-mm incision was made starting between the animal's eyes, exposing the bregma. A bur hole was made 0.1 mm posterior to the bregma and 2.3 mm right of the midline using a small animal stereotactic headframe (Model 900, David Kopf Instruments, Tujunga, Calif.). […]
This study was conducted in two main phases. The purpose of the first phase was to validate the use of ICG fluorescence in both intraoperative NIR macroscopic and miniaturized confocal endomicroscopic techniques for the identification of brain tumors in the mouse model. […]

For data set [3] the following is noted: cited from earlier work.
For data set [4] the following is noted: humans; cited from earlier work.

Turning to `CC1(C)C(/C=C/C=C/C=C/C=C2\N(CCCCS(=O)(=O)O)c3ccc4ccccc4c3C2(C)C)=[N+](CCCCS(=O)(=O)[O-])c2ccc3ccccc3c21` [ICG, Indocyanine green], in the data set with GL261-luc glioma cells [1] (15 minutes after injection versus one minute), the “intensity of macroscopic fluorescence in the central region of tumor” value is recorded as “increased”. For the same compound, the “macroscopic tumor visibility with NIR light” value with GL261-luc glioma cells [1] (after ICG injection, tumor 14 days after implantation, mice) was “macroscopically visible”. Also, in the data set on GL261-luc glioma cells [1] (immediately after intravenous injection), the “macroscopic ICG fluorescence in vessels” value is given as “could be observed in major vessels”. In the data set with GL261-luc glioma cells [2], the “ICG distribution in normal-appearing brain distant from the tumor (confocal endomicroscopy)” value was “predominantly intravascular ICG distribution” and the “ICG distribution within obvious tumor tissue (confocal endomicroscopy)” value was “extravascular ICG concentrated in clusters of cellular structures”. The “ICG fluorescence of tumor cells (confocal endomicroscopy)” value with GL261-luc glioma cells [2] (fifteen minutes after ICG injection) was “entire tumor mass was saturated with ICG”. Also, the “ICG fluorescence of tumor cells (confocal endomicroscopy)” value in the data set on GL261-luc glioma cells [2] (immediately after ICG injection) is reported as “fluorescence was seen only in a few clusters of tumor cells”. In addition, the “fraction of originally injected volume detectable in the blood” value in data set [3] (after 10 minutes) is on record as “only a small fraction”. In addition, the “binding to globulins, preferentially to α1-lipoproteins” value in data set [3] (after intravenous injection) is recorded as “almost completely”. Moreover, in data set [3] (in vivo), the “main source of clearance” value was “hepatic elimination” and the “metabolism in the body” value is “not metabolized”. Further, the toxicity result in data set [4] is “one of the least toxic substances ever administered to humans”.
